Test results reported in US20030156977A1, “Method for rapidly sterilizing a load” (priority 2000, published 2003).
Where “and” joins values, the source holds several entries; their conditions need not be identical. Equal entries are not always repeated. Where two headings read alike, the source gives them in different places.

How the values were obtained:
[1] = test system: Bacillus stearothermophilus spores
Procedure: The sterilization process was run under the following conditions:
The trays containing the inoculated coupons and the various loads were wrapped with sterilization wrap and sealed with sterilization tape.
The effectiveness of the sterilization process was determined by placing stainless steel coupons inoculated with >10^6 Bacillus stearothermophilus spores as biological indicators (BI's) into 3 mm×400 mm stainless steel lumens. The lumens were placed into double-wrapped sterilizer trays with the loads of medical instruments to be sterilized. At the end of the cycle, the BIs were recovered from the lumens, placed into tubes of TSB (Trypticase soy broth) medium and incubated at 55-60° C. for 14 days. The biological activity was then determined.
(§1) The pressure inside the chamber was also monitored as a function of time. After the completion of the sterilization cycle, the chamber was vented, the equipment was removed, and the inoculated coupons were tested for growth in the medium. […] The sterilization results and the summary of the various methods of analyzing the hydrogen concentration data are shown in Table 2 below.

[2] = for -Initial slope, k: 8.6 mg/L H2O2 injected, 6 trays, 20 min pre-plasma, first 50 seconds after maximum concentration
Procedure: as §1
The data were analyzed in various ways to determine whether a method could be found to quickly determine the suitability of the load for sterilization.
FIGS. 5-8 show graphs of ln(c/c0) versus time for a validation load (FIG. 5), a heavy load (FIG. 6), a heavy load with a new towel (FIG. 7), and a heavy load with an old towel (FIG. 8).
The initial slopes in Table 2 are recorded as the negative of the initial slopes for simplicity in recording the data.
The final concentration is measured at the end of the diffusion step 50, prior to evacuating and generating the post-injection plasma.

[3] = Group 7 validation loads with one towel
[4] = Group 8 validation loads with two towels

Question: Which “Fraction Positive BIs” value ([1]; Group 1: validation load, 8.6 or 9.3 mg/L H2O2 injected, 6 trays, 20 min pre-plasma) does the source give for `OO` [hydrogen peroxide] here?
Answer: The value was 0/10.

Question: And the “BI's of all runs of the group” value ([1]; Group 1 validation loads)?
Answer: The value was “negative”.

Question: And the “Fraction Positive BIs” value ([1]; Group 2: heavy load, 1 filter, 8.6 mg/L H2O2 injected, 6 trays, 20 min pre-plasma)?
Answer: The value was 0/10.

Question: And the “Fraction Positive BIs” value ([1]; Group 2: heavy load, 2 filters, 8.6 mg/L H2O2 injected, 6 trays, 20 min pre-plasma)?
Answer: The value was 0/10.

Question: What about the “Fraction Positive BIs” value ([1]; Group 2: heavy load, brass, 8.6 mg/L H2O2 injected, 6 trays, 20 min pre-plasma) of the same molecule?
Answer: Its value is 0/10.

Question: What about the “Fraction Positive BIs” value ([1]; Group 2: heavy load, mat, 8.6 mg/L H2O2 injected, 6 trays, 20 min pre-plasma) of the same molecule?
Answer: The value was 0/10.

Question: What about the “Fraction Positive BIs” value ([1]; Group 2: heavy load, 8.6 mg/L H2O2 injected, 6 trays, 20 min pre-plasma) of the same molecule?
Answer: The value was 1/10.

Question: And the “Positive BI's, total of all runs of the group” value (“Positive BI's, total” for short) ([1]; Group 2 heavy loads)?
Answer: The value was 1 of the 60.

Question: What about the “Fraction Positive BIs” value ([1]; Group 3: heavy load, 1 new towel, 8.6 mg/L H2O2 injected, 6 trays, 20 min pre-plasma) of the same molecule?
Answer: Its value is 6/10.

Question: And the “Fraction Positive BIs” value ([1]; Group 3: heavy load, 2 new towels, 8.6 mg/L H2O2 injected, 6 trays, 20 min pre-plasma)?
Answer: Its value is 5/10.

Question: And the “Fraction Positive BIs” value ([1]; Group 3: heavy load, 6/8 towel, 8.6 mg/L H2O2 injected, 6 trays, 20 min pre-plasma)?
Answer: Its value is 3/10.

Question: And the “Positive BI's, total” value ([1]; Group 3 heavy load/new towel runs)?
Answer: Its value is 14/30.

Question: And the “Fraction Positive BIs” value ([1]; Group 4: heavy load, 1 old towel, 8.6 mg/L H2O2 injected, 6 trays, 20 min pre-plasma)?
Answer: The value was 10/10.

Question: And the “Positive BI's, total” value ([1]; Group 4 heavy load/old towel runs)?
Answer: Its value is 20 of the 20.

Question: What about the “Fraction Positive BIs” value ([1]; Group 5: validation load, initial load temperature 5° C., 9.3 mg/L H2O2 injected, 4 trays, 15 min pre-plasma) of the same molecule?
Answer: Its value is 0/12.

Question: What about the “BI's of all runs of the group” value ([1]; Group 5 cold validation loads, 15 minutes of pre-plasma, 72 BI's) of the same molecule?
Answer: The value was “negative”.

Question: And the “Fraction Positive BIs” value ([1]; Group 6: validation load, initial load temperature 5° C., 9.3 mg/L H2O2 injected, 4 trays, no pre-plasma)?
Answer: The value was 0/12.

Question: What about the “BI's of all runs of the group” value ([1]; Group 6 cold condensing validation loads, no pre-plasma) of the same molecule?
Answer: The value was “negative”.

Question: And the “Positive BI's, total” value [1, 3]?
Answer: Its value is 4/72.

Question: And the “Positive BI's, total” value [1, 4]?
Answer: The value was 3/73.

Question: And the “Initial slope, average” value ([2]; Group 1 runs with the validation loads)?
Answer: The value was 0.00983 s⁻¹.

Question: And the “-Initial slope, k” value ([2]; Group 2: heavy load, 1 filter)?
Answer: Its value is 0.016 s⁻¹.

Question: And the “-Initial slope, k” value ([2]; Group 2: heavy load, 2 filters)?
Answer: The value was 0.017 s⁻¹.

Question: What about the “-Initial slope, k” value ([2]; Group 2: heavy load, brass) of the same molecule?
Answer: The value was 0.012 s⁻¹.

Question: What about the “-Initial slope, k” value ([2]; Group 2: heavy load, mat) of the same molecule?
Answer: The value was 0.013 s⁻¹.

Question: What about the “-Initial slope, k” value ([2]; Group 2: heavy load) of the same molecule?
Answer: Its value is 0.016 s⁻¹.

Question: And the “Initial slope, average” value ([2]; Group 2 runs with the heavy loads)?
Answer: The value was 0.0145 s⁻¹.

Question: What about the “Initial slopes, range over runs” value ([2]; Group 2 runs with the heavy loads (all variants)) of the same molecule?
Answer: Its value is 0.012 to 0.017 s⁻¹.

Question: And the “-Initial slope, k” value ([2]; Group 3: heavy load, 1 new towel)?
Answer: Its value is 0.026 s⁻¹.

Question: And the “-Initial slope, k” value ([2]; Group 3: heavy load, 2 new towels)?
Answer: Its value is 0.028 s⁻¹.

Question: And the “-Initial slope, k” value ([2]; Group 3: heavy load, 6/8 towel)?
Answer: The value was 0.019 s⁻¹.

Question: And the “Initial slope, average” value ([2]; Group 3 runs with the heavy loads and new towel)?
Answer: Its value is 0.0243 s⁻¹.

Question: What about the “Initial slopes, range over runs” value ([2]; Group 3 runs with the heavy loads and new towel (all variants)) of the same molecule?
Answer: The value was 0.019 to 0.028 s⁻¹.

Question: And the “-Initial slope, k” value ([2]; Group 4: heavy load, 1 old towel)?
Answer: Its value is 0.039 s⁻¹ and 0.025 s⁻¹.

Question: What about the “Initial slope, average” value ([2]; Group 4 runs with the heavy loads and old towel) of the same molecule?
Answer: The value was 0.032 s⁻¹.

Question: And the “Initial slope, average” value ([2]; Group 5 runs with the cold validation loads and 15 minutes of pre-plasma)?
Answer: The value was 0.0095 s⁻¹.

Question: What about the “Initial slope, average” value ([2]; Group 6 runs with the cold condensing validation loads with no pre-plasma) of the same molecule?
Answer: Its value is 0.0164 s⁻¹.

Question: What about the “Initial slope, average” value [2, 3] of the same molecule?
Answer: The value was 0.0195 s⁻¹.

Question: And the “Initial slope, average” value [2, 4]?
Answer: The value was 0.028 s⁻¹.

Question: What about the “Initial slope by type of load” value ([2]; cold, condensing load) of the same molecule?
Answer: Its value is 0.016 s⁻¹.

Question: What about the “Initial slope by type of load” value ([2]; heavy load) of the same molecule?
Answer: The value was 0.015 s⁻¹.

Question: And the “Initial slope by type of load” value ([2]; heavy load with towel)?
Answer: The value was > 0.020 s⁻¹.

Question: What about the “Initial slope by type of load” value ([2]; validation load) of the same molecule?
Answer: The value was 0.010 s⁻¹.
